Experimental data from patent US12285475B2, “Bacterium capable of inducing TH1 cells” (priority 2016, dated 2025).
Where two headings read alike, the source gives them in different places.

Columns and labels:
Kp-2H7 = Kp-2H7 antibiotic susceptibility (MIC / growth in presence of antibiotics); assay type: cell-based, Klebsiella pneumoniae; settings: for resistance of Kp-2H7 to antibiotic: FIG. 11 and Table 12, culture 37° C. 24 hours, absorbance 630 nm
Procedure: The bacterium growths were determined based on the absorbance measurement at a wavelength of 630 nm.

Ka-11E12 = Ka-11E12 antibiotic susceptibility (MIC / growth in presence of antibiotics); assay type: cell-based, Klebsiella aeromobilis; settings: against Ka-11E12, Table 14
Procedure: FIG. 36 is a graph for analyzing the Ka-11E12 growths in the presence of antibiotics. Ka-11E12 was cultured in a 96-well plate in the presence of different concentrations of the antibiotics at 37° C. for 24 hours. The bacterium growths were determined based on the absorbance measurement at a wavelength of 630 nm. Each data represents the mean±standard deviation based on the results of at least three independent experiments.

[1] = Klebsiella pneumoniae, 24 h, read-out: MIC
[2] = Klebsiella, 24 h, read-out: MIC

Molecule: NCC[C@H](O)C(=O)N[C@@H]1C[C@H](N)[C@@H](O[C@H]2O[C@H](CN)[C@@H](O)[C@H](O)[C@H]2O)[C@H](O)[C@H]1O[C@H]1O[C@H](CO)[C@@H](O)[C@H](N)[C@H]1O [Amikacin]
- MIC (Kp-2H7; [1]): ≤ 8 µg/mL
- MIC (Ka-11E12; [2]): ≤ 8 µg/mL

Molecule: CC1(C)S[C@@H]2[C@H](NC(=O)[C@H](N)c3ccccc3)C(=O)N2[C@H]1C(=O)O [Ampicillin]
- MIC (Kp-2H7; [1]): > 16 µg/mL
- MIC (Ka-11E12; [2]): > 16 µg/mL

Molecule: C[C@H]1[C@H](NC(=O)/C(=N\OC(C)(C)C(=O)O)c2csc(N)n2)C(=O)N1S(=O)(=O)O [Aztreonam]
- MIC (Kp-2H7; [1]): ≤ 1 µg/mL
- MIC (Ka-11E12; [2]): ≤ 1 µg/mL

Molecule: N[C@@H](C(=O)N[C@@H]1C(=O)N2C(C(=O)O)=C(Cl)CS[C@H]12)c1ccccc1 [Cefaclor]
- MIC (Kp-2H7; [1]): ≤ 4 µg/mL
- MIC (Ka-11E12; [2]): 8 µg/mL

Molecule: Cc1nnc(SCC2=C(C(=O)O)N3C(=O)[C@@H](NC(=O)Cn4cnnn4)[C@H]3SC2)s1 [Cefazolin]
- MIC (Kp-2H7; [1]): 1 µg/mL
- MIC (Ka-11E12; [2]): > 4 µg/mL

Molecule: CO[C@@]1(NC(=O)CSCC#N)C(=O)N2C(C(=O)O)=C(CSc3nnnn3C)CS[C@@H]21 [Cefmetazole]
- MIC (Kp-2H7; [1]): ≤ 8 µg/mL
- MIC (Ka-11E12; [2]): 16 µg/mL

Molecule: CO/N=C(\C(=O)N[C@@H]1C(=O)N2C(C(=O)O)=C(COC(C)=O)CS[C@H]12)c1csc(N)n1 [Cefotaxime]
- MIC (Kp-2H7; [1]): ≤ 0.5 µg/mL
- MIC (Ka-11E12; [2]): ≤ 0.5 µg/mL

Molecule: CN(C)CCn1nnnc1SCC1=C(C(=O)O)N2C(=O)[C@@H](NC(=O)Cc3csc(N)n3)[C@H]2SC1 [Cefotiam]
- MIC (Kp-2H7; [1]): ≤ 0.5 µg/mL
- MIC (Ka-11E12; [2]): ≤ 0.5 µg/mL

Molecule: CO/N=C(\C(=O)N[C@@H]1C(=O)N2C(C(=O)[O-])=C(C[n+]3cccc4c3CCC4)CS[C@H]12)c1csc(N)n1 [Cefpirome]
- MIC (Kp-2H7; [1]): ≤ 4 µg/mL
- MIC (Ka-11E12; [2]): ≤ 4 µg/mL

Molecule: COCC1=C(C(=O)OC(C)OC(=O)OC(C)C)N2C(=O)[C@@H](NC(=O)/C(=N\OC)c3csc(N)n3)[C@H]2SC1 (some centres unmarked) [Cefpodoxime-Proxetil]
- MIC (Kp-2H7; [1]): ≤ 1 µg/mL
- MIC (Ka-11E12; [2]): ≤ 1 µg/mL

Molecule: CC(C)(O/N=C(\C(=O)N[C@@H]1C(=O)N2C(C(=O)[O-])=C(C[n+]3ccccc3)CS[C@H]12)c1csc(N)n1)C(=O)O [Ceftazidime]
- MIC (Kp-2H7; [1]): ≤ 1 µg/mL
- MIC (Ka-11E12; [2]): ≤ 1 µg/mL

Molecule: CO[C@@]1(NC(=O)CSC(F)F)C(=O)N2C(C(=O)O)=C(CSc3nnnn3CCO)CO[C@@H]21 [Flomoxef]
- MIC (Kp-2H7; [1]): ≤ 8 µg/mL
- MIC (Ka-11E12; [2]): ≤ 8 µg/mL

Molecule: C[C@@H]1O[C@@H]1P(=O)(O)O [Fosfomycin]
- MIC (Kp-2H7; [1]): 16 µg/mL
- MIC (Ka-11E12; [2]): 16 µg/mL

Molecule: C[C@H]1COc2c(N3CCN(C)CC3)c(F)cc3c(=O)c(C(=O)O)cn1c23 [Levofloxacin]
- MIC (Kp-2H7; [1]): ≤ 1 µg/mL
- MIC (Ka-11E12; [2]): ≤ 1 µg/mL

Molecule: C[C@@H](O)[C@H]1C(=O)N2C(C(=O)O)=C(S[C@@H]3CN[C@H](C(=O)N(C)C)C3)[C@H](C)[C@H]12 [Meropenem]
- MIC (Kp-2H7; [1]): ≤ 0.25 µg/mL
- MIC (Ka-11E12; [2]): ≤ 0.25 µg/mL

Molecule: CN(C)c1ccc(O)c2c1C[C@H]1C[C@H]3[C@H](N(C)C)C(O)=C(C(N)=O)C(=O)[C@@]3(O)C(O)=C1C2=O [Minocycline]
- MIC (Kp-2H7; [1]): ≤ 2 µg/mL
- MIC (Ka-11E12; [2]): ≤ 2 µg/mL

Molecule: CCN1CCN(C(=O)N[C@@H](C(=O)N[C@@H]2C(=O)N3[C@@H]2SC(C)(C)[C@@H]3C(=O)O)c2ccccc2)C(=O)C1=O [Piperacillin]
- MIC (Kp-2H7; [1]): ≤ 8 µg/mL
- MIC (Ka-11E12; [2]): ≤ 8 µg/mL

Molecule: Cc1ncc([N+](=O)[O-])n1CCO [metronidazole]
- resistance of Kp-2H7 to antibiotic (Kp-2H7): resistances

Molecule: CN[C@@H]1[C@H](O)[C@H](NC)[C@H]2O[C@@]3(O)C(=O)C[C@@H](C)O[C@H]3O[C@@H]2[C@H]1O [spectinomycin]
- resistance of Kp-2H7 to antibiotic (Kp-2H7): resistances

Molecule: CC[C@H]1OC(=O)C[C@@H](O)[C@H](C)[C@@H](O[C@@H]2O[C@H](C)[C@@H](O[C@H]3C[C@@](C)(O)[C@@H](O)[C@H](C)O3)[C@H](N(C)C)[C@H]2O)[C@@H](CC=O)C[C@@H](C)C(=O)/C=C/C(C)=C/[C@@H]1CO[C@@H]1O[C@H](C)[C@@H](O)[C@@H](OC)[C@H]1OC [tylosin]
- resistance of Kp-2H7 to antibiotic (Kp-2H7): resistances

Molecule: Amoxicillin/Clavulanate
- MIC (Kp-2H7; against Kp-2H7, Table 12): ≤4 µg/mL
- MIC (Ka-11E12): >16 µg/mL

Molecule: Gentamicin
- MIC (Kp-2H7; against Kp-2H7, Table 12): ≤2 µg/mL
- MIC (Ka-11E12): ≤2 µg/mL

Molecule: Imipenem/Cilastatin
- MIC (Kp-2H7): ≤0.25 µg/mL
- MIC (Ka-11E12): ≤0.25 µg/mL

Molecule: Sulbactam/Cefoperazone
- MIC (Kp-2H7; against Kp-2H7, Table 12): ≤4 µg/mL
- MIC (Ka-11E12): ≤4 µg/mL

Molecule: Sulfamethoxazole-Trimethoprim
- MIC (Kp-2H7; against Kp-2H7, Table 12): ≤20 µg/mL
- MIC (Ka-11E12): ≤ 20 µg/mL
